Source: the supplement of paper PMC11962398

Experiments:
[1] = compound: T1, C[C@H]1CNCCN1c1nccc(-c2noc3c2CCC[C@@]32CCCc3sc(N)c(C#N)c32)n1 [BI-2493]; assay: 1 - AUC of viability dose-response curve (sensitivity) (fraction); higher = more sensitive; settings: 5 days
Experimental: (§1)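 PRISM pooled barcoded cancer cell line viability screen (Broad Institute) with BI-2493 at 8 doses in threefold dilutions from 0.00457 to 10 µmol/L, 5-day treatment; curves fitted per cell line. IC50 is undefined (placeholder) for resistant lines. AUC is capped at 1, and sensitivity is reported as 1 − AUC.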

[2] = compound: T1, BI-2493; settings: 5 days
Experimental: as §1

NZOV9_OVARY was tested, and the “1 - AUC of viability dose-response curve” value [1] was 0.155 and the “IC50 of cell viability” value [2] was 8.42 µM.

In the case of OACM51_OESOPHAGUS, the “1 - AUC of viability dose-response curve” value [1] is reported as 0.0865 and the “IC50 of cell viability” value [2] is reported as 6.83 µM.

With OAW42_OVARY the “1 - AUC of viability dose-response curve” value [1] was 0.104 and the “IC50 of cell viability” value [2] was 5.86 µM.

For OC314_OVARY, the “1 - AUC of viability dose-response curve” value [1] was 0.113 and the “IC50 of cell viability” value [2] was 5.96 µM.

OC316_OVARY was tested, and the “1 - AUC of viability dose-response curve” value [1] was 0.113 and the “IC50 of cell viability” value [2] was 5.73 µM.

With “OCIAML2_HAEMATOPOIETIC_AND_LYMPHOID_TISSUE” the “1 - AUC of viability dose-response curve” value [1] was 0.209 and the “IC50 of cell viability” value [2] was 3 µM.

For “OCIAML3_HAEMATOPOIETIC_AND_LYMPHOID_TISSUE”, the “1 - AUC of viability dose-response curve” value [1] was 0.23 and the “IC50 of cell viability” value [2] was 2.15 µM.

OCIC4P_OVARY was tested, and the “1 - AUC of viability dose-response curve” value [1] was 0.115 and the “IC50 of cell viability” value [2] was 6.47 µM.

With OCIC5X_OVARY the “1 - AUC of viability dose-response curve” value [1] was 0.0098 and the “IC50 of cell viability” value [2] was 9.57 µM.

For “OCILY3_HAEMATOPOIETIC_AND_LYMPHOID_TISSUE”, the “1 - AUC of viability dose-response curve” value [1] was 0.0575 and the “IC50 of cell viability” value [2] was 7.48 µM.

“OCILY19_HAEMATOPOIETIC_AND_LYMPHOID_TISSUE” was tested, and the “1 - AUC of viability dose-response curve” value [1] was 0.19 and the “IC50 of cell viability” value [2] was 3.56 µM.

In the case of “OCILY132_HAEMATOPOIETIC_AND_LYMPHOID_TISSUE”, the “1 - AUC of viability dose-response curve” value [1] is reported as 0.0816 and the “IC50 of cell viability” value [2] is reported as 7.21 µM.

With “OCIM1_HAEMATOPOIETIC_AND_LYMPHOID_TISSUE” the “1 - AUC of viability dose-response curve” value [1] was 0.0683 and the “IC50 of cell viability” value [2] was 6.84 µM.

In the case of OCIP5X_OVARY, the “1 - AUC of viability dose-response curve” value [1] is reported as 0.00791 and the “IC50 of cell viability” value [2] is reported as 9.58 µM.

With OCUG1_BILIARY_TRACT the “1 - AUC of viability dose-response curve” value [1] was 0.132 and the “IC50 of cell viability” value [2] was 4.77 µM.

OE19_OESOPHAGUS was tested, and the “1 - AUC of viability dose-response curve” value [1] was 0.168 and the “IC50 of cell viability” value [2] was 4.24 µM.

OE21_OESOPHAGUS was tested, and the “1 - AUC of viability dose-response curve” value [1] was 0.112 and the “IC50 of cell viability” value [2] was 3.82 µM.

OE33_OESOPHAGUS was tested, and the “1 - AUC of viability dose-response curve” value [1] was 0.041 and the “IC50 of cell viability” value [2] was 8.75 µM.

ONCODG1_OVARY was tested, and the “1 - AUC of viability dose-response curve” value [1] was 0.0507 and the “IC50 of cell viability” value [2] was 8.36 µM.

In the case of ONDA9_CENTRAL_NERVOUS_SYSTEM, the “1 - AUC of viability dose-response curve” value [1] is reported as 0.0973 and the “IC50 of cell viability” value [2] is reported as 5.1 µM.

ONS76_CENTRAL_NERVOUS_SYSTEM was tested, and the “1 - AUC of viability dose-response curve” value [1] was 0.133 and the “IC50 of cell viability” value [2] was 5.21 µM.

OSC20_UPPER_AERODIGESTIVE_TRACT was tested, and the “1 - AUC of viability dose-response curve” value [1] was 0.165 and the “IC50 of cell viability” value [2] was 9.09 µM.

For OSRC2_KIDNEY, the “1 - AUC of viability dose-response curve” value [1] was 0.0909 and the “IC50 of cell viability” value [2] was 4.48 µM.

With OUMS23_LARGE_INTESTINE the “1 - AUC of viability dose-response curve” value [1] was 0.165 and the “IC50 of cell viability” value [2] was 8.65 µM.

For OV17R_OVARY, the “1 - AUC of viability dose-response curve” value [1] was 0.044 and the “IC50 of cell viability” value [2] was 9.34 µM.

In the case of OV56_OVARY, the “1 - AUC of viability dose-response curve” value [1] is reported as 0.0641 and the “IC50 of cell viability” value [2] is reported as > 10 µM.

With OVCAR8_OVARY the “1 - AUC of viability dose-response curve” value [1] was 0.00937 and the “IC50 of cell viability” value [2] was 9.61 µM.

OVISE_OVARY was tested, and the “1 - AUC of viability dose-response curve” value [1] was 0.105 and the “IC50 of cell viability” value [2] was 4.17 µM.

With OVK18_OVARY the “1 - AUC of viability dose-response curve” value [1] was 0.228 and the “IC50 of cell viability” value [2] was 1.81 µM.

In the case of OVKATE_OVARY, the “1 - AUC of viability dose-response curve” value [1] is reported as 0.086 and the “IC50 of cell viability” value [2] is reported as 4.22 µM.

For OVTOKO_OVARY, the “1 - AUC of viability dose-response curve” value [1] was 0.123 and the “IC50 of cell viability” value [2] was 4.32 µM.

In the case of OZ_BILIARY_TRACT, the “1 - AUC of viability dose-response curve” value [1] is reported as 0.0583 and the “IC50 of cell viability” value [2] is reported as 6.81 µM.

For “P12ICHIKAWA_HAEMATOPOIETIC_AND_LYMPHOID_TISSUE”, the “1 - AUC of viability dose-response curve” value [1] was 0.121 and the “IC50 of cell viability” value [2] was 3.63 µM.

For PA1_OVARY, the “1 - AUC of viability dose-response curve” value [1] was 0.176 and the “IC50 of cell viability” value [2] was 1.45 µM.

With PACADD119_PANCREAS the “1 - AUC of viability dose-response curve” value [1] was 0.169 and the “IC50 of cell viability” value [2] was 4.59 µM.

For PACADD137_PANCREAS, the “1 - AUC of viability dose-response curve” value [1] was 0.104 and the “IC50 of cell viability” value [2] was 8.11 µM.

With PACADD161_PANCREAS the “1 - AUC of viability dose-response curve” value [1] was 0.185 and the “IC50 of cell viability” value [2] was 5.87 µM.

In the case of PANC1_PANCREAS, the “1 - AUC of viability dose-response curve” value [1] is reported as 0.128 and the “IC50 of cell viability” value [2] is reported as 4.69 µM.

PANC0203_PANCREAS was tested, and the “1 - AUC of viability dose-response curve” value [1] was 0.327 and the “IC50 of cell viability” value [2] was 1.16 µM.

For PANC0327_PANCREAS, the “1 - AUC of viability dose-response curve” value [1] was 0.138 and the “IC50 of cell viability” value [2] was 7.84 µM.

With PANC0403_PANCREAS the “1 - AUC of viability dose-response curve” value [1] was 0.379 and the “IC50 of cell viability” value [2] was 0.501 µM.

For PANC0504_PANCREAS, the “1 - AUC of viability dose-response curve” value [1] was 0.286 and the “IC50 of cell viability” value [2] was 1.18 µM.

In the case of PANC0813_PANCREAS, the “1 - AUC of viability dose-response curve” value [1] is reported as 0.27 and the “IC50 of cell viability” value [2] is reported as 7.44 µM.

PANC1005_PANCREAS was tested, and the “1 - AUC of viability dose-response curve” value [1] was 0.121 and the “IC50 of cell viability” value [2] was 3.98 µM.

For PATU8902_PANCREAS, the “1 - AUC of viability dose-response curve” value [1] was 0.0766 and the “IC50 of cell viability” value [2] was 6.58 µM.

PATU8988S_PANCREAS was tested, and the “1 - AUC of viability dose-response curve” value [1] was 0.197 and the “IC50 of cell viability” value [2] was 1.14 µM.

PATU8988T_PANCREAS was tested, and the “1 - AUC of viability dose-response curve” value [1] was 0.0812 and the “IC50 of cell viability” value [2] was 4.5 µM.

In the case of PC3_PROSTATE, the “1 - AUC of viability dose-response curve” value [1] is reported as 0.0397 and the “IC50 of cell viability” value [2] is reported as > 10 µM.

PC14_LUNG was tested, and the “1 - AUC of viability dose-response curve” value [1] was 0.181 and the “IC50 of cell viability” value [2] was 3.98 µM.
